Among the data in patent publication US8236818B2, “Substituted imidazopyridine derivatives as melanocortin-4 receptor antagonists” (Santhera Pharmaceuticals (Schweiz) AG, priority 2007, dated 2012) are IC50 and Emax values, retold here.

Test [1] concerns the target T1, melanocortin-4 receptor (Homo sapiens, UniProt P32245).
T1 construct: expressed in transfected cells; host or cells: HEK293 cells (membrane preparations)
Kind of test: Membrane binding assay (fluorescence polarization, competition with fluorescence labeled NDP-alpha-MSH). Particulars: read-out: hMC-4R binding assay IC50/μM. Background: Polarisation of emitted light reports the rotation of a fluorescent probe.

In test [2] the target is T1, melanocortin-4 receptor. In words: Functional assay (cAMP fluorescence polarization, membrane based, agonistic activity). Format: biochemical. The conditions noted are these: 2 h; read-out: % activation functional assay.

Bounds are passed on as bounds.

T1 sequence (P32245 whole entry): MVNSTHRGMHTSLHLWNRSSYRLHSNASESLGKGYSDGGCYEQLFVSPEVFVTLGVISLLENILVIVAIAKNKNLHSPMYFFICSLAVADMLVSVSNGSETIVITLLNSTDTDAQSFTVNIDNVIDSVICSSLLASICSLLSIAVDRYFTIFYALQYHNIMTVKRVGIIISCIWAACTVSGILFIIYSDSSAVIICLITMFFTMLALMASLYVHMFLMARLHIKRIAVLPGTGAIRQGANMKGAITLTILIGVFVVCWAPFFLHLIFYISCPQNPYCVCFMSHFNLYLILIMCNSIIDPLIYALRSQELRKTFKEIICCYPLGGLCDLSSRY

Turning to `CC(=O)OCCn1cc(-c2nc3ccc(C(=O)N(CCC4CC4)CCC4CC4)cn3c2CCCN2CCCC2)ccc1=O` [Example 105], the IC50 at melanocortin-4 receptor [1] lay within 0.1 to 1 µM. For the same molecule, the Emax on melanocortin-4 receptor [2] was -24%.
Regarding `CC(=O)OCCOc1ccc(-c2nc3ccc(C(=O)N(CCC4CC4)CCC4CC4)cn3c2CCCN2CCCC2)cn1` [Example 106], at melanocortin-4 receptor [1], the IC50 was 0.1 to 1 µM. In addition, the Emax at melanocortin-4 receptor [2] is 0%.
Regarding `O=C(c1ccc2nc(-c3ccc(=O)n(CCO)c3)c(CCCN3CCCC3)n2c1)N(CCC1CC1)CCC1CC1` [Example 107], the IC50 on melanocortin-4 receptor [1] was 0.1 to 1 µM. For the same molecule, the Emax on melanocortin-4 receptor [2] was -17%.
As to `O=C(c1ccc2nc(-c3ccc(OCCO)nc3)c(CCCN3CCCC3)n2c1)N(CCC1CC1)CCC1CC1` [Example 108], on melanocortin-4 receptor [1], the IC50 is 0.1 to 1 µM. In addition, at melanocortin-4 receptor [2], the Emax was -19%.
The like results for `CC1CCCN1CCCc1c(-c2ccc(=O)[nH]c2)nc2ccc(C(=O)N(CCC3CC3)CCC3CC3)cn12` (centres unmarked) [Example 109] were, in that order, under 0.1 µM and -23%.
The like results for `CC(=O)OCCn1cc(-c2nc3ccc(C(=O)N(CCC4CC4)CCC4CC4)cn3c2CCCN2CCCC2C)ccc1=O` (centres unmarked) [Example 110] were, in that order, 0.1 to 1 µM and -23%.
For `CC1CCCN1CCCc1c(-c2ccc(=O)n(CCO)c2)nc2ccc(C(=O)N(CCC3CC3)CCC3CC3)cn12` (centres unmarked) [Example 111], at melanocortin-4 receptor [1], the IC50 lay in the range of 0.1 to 1 µM. The Emax on melanocortin-4 receptor [2] is -25%.
For `CC1CCCN1CCCc1c(-c2ccc(OCCO)nc2)nc2ccc(C(=O)N(CCC3CC3)CCC3CC3)cn12` (centres unmarked) [Example 112], the IC50 at melanocortin-4 receptor [1] was under 0.1 µM. The Emax on melanocortin-4 receptor [2] was -9%.
Turning to `CC(C)CCN(CCC(C)C)C(=O)c1ccc2nc(-c3ccc(C#N)cc3)c(CN3CCC(N(C)C)CC3)n2c1` [Example 113], at melanocortin-4 receptor [1], the IC50 lay in the range of 0.1 to 1 µM. Moreover, the Emax on melanocortin-4 receptor [2] stood at 0%.
Take `COc1cccc(-c2nc3ccc(C(=O)N(CCC(C)C)CCC(C)C)cn3c2CN2CCC(N(C)C)CC2)c1` [Example 114]: the IC50 on melanocortin-4 receptor [1] lay in the range of 0.1 to 1 µM. Also, on melanocortin-4 receptor [2], the Emax came to 0%.
The like results for `COc1cccc(-c2nc3ccc(C(=O)N(CCC(C)C)CCC(C)C)cn3c2CN2CCC(N)CC2)c1` [Example 116] were, in that order, 0.1 to 1 µM and 0%.
Take `CC(C)CCN(CCC(C)C)C(=O)c1ccc2nc(-c3ccc(Cl)cc3)c(CN3CCC(N)CC3)n2c1` [Example 117]: on melanocortin-4 receptor [1], the IC50 fell in the range of 0.1 to 1 µM. For the same molecule, the Emax on melanocortin-4 receptor [2] turned out to be 0%.
Taken in the same sequence, the figures for `CC(C)CCN(CCC(C)C)C(=O)c1ccc2nc(-c3ccc(F)cc3)c(CN3CCC(N)CC3)n2c1` [Example 118] were 0.1 to 1 µM and 0%.
In the case of `CC(C)CCN(CCC(C)C)C(=O)c1ccc2nc(-c3cccc(Cl)c3)c(CN3CCC(N)CC3)n2c1` [Example 120], the IC50 at melanocortin-4 receptor [1] was over 1 µM. Further, at melanocortin-4 receptor [2], the Emax turned out to be 0%.
`COc1cccc(-c2nc3ccc(C(=O)N(CCC(C)C)CCC(C)C)cn3c2CN2CCNCC2)c1` [Example 121]: the IC50 at melanocortin-4 receptor [1] is over 1 µM. The Emax on melanocortin-4 receptor [2] was found to be 0%.
Consider `CC(C)CCN(CCC(C)C)C(=O)c1ccc2nc(-c3cccc(C#N)c3)c(CN3CCC(N)CC3)n2c1` [Example 122], for which the IC50 on melanocortin-4 receptor [1] is 0.1 to 1 µM. Besides, the Emax on melanocortin-4 receptor [2] turned out to be 0%.
Regarding `COc1cccc(-c2nc3ccc(C(=O)N(CCC(C)C)CCC(C)C)cn3c2CN2CCC(N)C2)c1` (centres unmarked) [Example 123], the IC50 on melanocortin-4 receptor [1] was over 1 µM. For the same molecule, the Emax on melanocortin-4 receptor [2] was 0%.
As to `CC(C)CCN(CCC(C)C)C(=O)c1ccc2nc(-c3ccc(-c4ccccn4)s3)c(CN3CCC(N)CC3)n2c1` [Example 124], the IC50 at melanocortin-4 receptor [1] fell in the range of 0.1 to 1 µM. On melanocortin-4 receptor [2], the Emax worked out at 0%.
With `CC(C)CCN(CCC(C)C)C(=O)c1ccc2nc(-c3cccs3)c(CN3CCC(N)CC3)n2c1` [Example 125], the IC50 at melanocortin-4 receptor [1] was in the range of 0.1 to 1 µM. Besides, the Emax at melanocortin-4 receptor [2] was determined as 0%.
Taken in the same sequence, the figures for `CC(C)CCN(CCC(C)C)C(=O)c1ccc2nc(-c3ccc(Cl)cc3)c(CN3CCCC(N)C3)n2c1` (centres unmarked) [Example 126] were over 1 µM and 0%.
As to `CC(C)CCN(CCC(C)C)C(=O)c1ccc2nc(-c3ccc(Cl)cc3)c(CN3C[C@H]4CNC[C@H]4C3)n2c1` [Example 127], the IC50 at melanocortin-4 receptor [1] is 0.1 to 1 µM. At melanocortin-4 receptor [2], the Emax worked out at 0%.
Regarding `CC(C)CCN(CCC(C)C)C(=O)c1ccc2nc(-c3ccc(Cl)cc3)c(CN3CCN4CCCC4C3)n2c1` (centres unmarked) [Example 128], the IC50 on melanocortin-4 receptor [1] is over 1 µM. In addition, the Emax on melanocortin-4 receptor [2] amounted to 0%.
Regarding `COc1ccc(-c2nc3ccc(C(=O)N(CCC(C)C)CCC(C)C)cn3c2CN2CCC(N(C)C)CC2)c(OC)c1` [Example 129], the IC50 on melanocortin-4 receptor [1] is over 1 µM. Also, the Emax on melanocortin-4 receptor [2] was found to be 0%.
Consider `COc1ccc(OC)c(-c2nc3ccc(C(=O)N(CCC(C)C)CCC(C)C)cn3c2CN2CCC(N(C)C)CC2)c1` [Example 130], for which the IC50 at melanocortin-4 receptor [1] was over 1 µM. Moreover, at melanocortin-4 receptor [2], the Emax was 0%.
For `CC(C)CCN(CCC(C)C)C(=O)c1ccc2nc(-c3ccc(Cl)c(Cl)c3)c(CN3CCC(N(C)C)CC3)n2c1` [Example 131], the IC50 on melanocortin-4 receptor [1] is under 0.1 µM. The Emax on melanocortin-4 receptor [2] was 0%.
For `CC(C)CCN(CCC(C)C)C(=O)c1ccc2nc(-c3ccccc3)c(CN3CCC(N)CC3)n2c1` [Example 133], the IC50 at melanocortin-4 receptor [1] fell in the range of 0.1 to 1 µM. In addition, the Emax at melanocortin-4 receptor [2] was 0%.
Regarding `CC(C)CCN(CCC(C)C)C(=O)c1ccc2nc(-c3ccc(C(F)(F)F)cc3)c(CN3CCC(N)CC3)n2c1` [Example 134], the IC50 at melanocortin-4 receptor [1] was in the range of 0.1 to 1 µM. In addition, the Emax on melanocortin-4 receptor [2] came to 0%.
For the molecule `CC(C)CCN(CCC(C)C)C(=O)c1ccc2nc(-c3nccs3)c(CN3CCC(N)CC3)n2c1` [Example 135], the IC50 at melanocortin-4 receptor [1] was over 1 µM. In addition, at melanocortin-4 receptor [2], the Emax stood at 0%.
Turning to `CC(C)CCN(CCC(C)C)C(=O)c1ccc2nc(-c3ccc4c(c3)CCC(=O)N4)c(CN3CCC(N)CC3)n2c1` [Example 136], the IC50 at melanocortin-4 receptor [1] lay in the range of 0.1 to 1 µM. Moreover, the Emax at melanocortin-4 receptor [2] was 0%.
Turning to `CC(C)CCN(CCC(C)C)C(=O)c1ccc2nc(-c3ccc4c(c3)NC(=O)CO4)c(CN3CCC(N)CC3)n2c1` [Example 137], the IC50 on melanocortin-4 receptor [1] fell in the range of 0.1 to 1 µM. The Emax at melanocortin-4 receptor [2] was determined as 0%.
Take `CC(C)CCN(CCC(C)C)C(=O)c1ccc2nc(-c3ccc(C#N)cc3)c(CN3CCC(N)CC3)n2c1` [Example 138]: at melanocortin-4 receptor [1], the IC50 lay in the range of 0.1 to 1 µM. Moreover, at melanocortin-4 receptor [2], the Emax was determined as 0%.
On to `COc1ccc(-c2nc3ccc(C(=O)N(CCC(C)C)CCC(C)C)cn3c2CN2CCC(N)CC2)cc1OC` [Example 139], for which, at melanocortin-4 receptor [1], the IC50 fell in the range of 0.1 to 1 µM. For the same molecule, at melanocortin-4 receptor [2], the Emax stood at 0%.
Turning to `COc1ccc(-c2nc3ccc(C(=O)N(CCC(C)C)CCC(C)C)cn3c2CN2CCC(N)CC2)cc1` [Example 140], the IC50 at melanocortin-4 receptor [1] lay within 0.1 to 1 µM. The Emax at melanocortin-4 receptor [2] was 0%.
As for `CCCN(CC1CC1)C(=O)c1ccc2nc(-c3ccc(C#N)cc3)c(CCCN3CCCC3)n2c1` [Example 141], on melanocortin-4 receptor [1], the IC50 was in the range of 0.1 to 1 µM. On melanocortin-4 receptor [2], the Emax stood at 0%.
Taken in the same sequence, the figures for `CCCCN(CCCC)C(=O)c1ccc2nc(-c3ccc(C#N)cc3)c(CCCN3CCCC3)n2c1` [Example 142] were under 0.1 µM and 0%.
Taken in the same sequence, the figures for `CC(C)CCN(CCC1CC1)C(=O)c1ccc2nc(-c3ccc(C#N)cc3)c(CCCN3CCCC3)n2c1` [Example 143] were under 0.1 µM and 0%.
`CC(C)CN(CC(C)C)C(=O)c1ccc2nc(-c3ccc(C#N)cc3)c(CCCN3CCCC3)n2c1` [Example 144]: the IC50 on melanocortin-4 receptor [1] lay within 0.1 to 1 µM. Moreover, the Emax at melanocortin-4 receptor [2] is 0%.
The like results for `N#Cc1ccc(-c2nc3ccc(C(=O)N(CCC4CC4)CCC4CC4)cn3c2CCCN2CCCC2)cc1` [Example 145] were, in that order, under 0.1 µM and 0%.
For the molecule `CC(C)CC1CCCN1C(=O)c1ccc2nc(-c3ccc(C#N)cc3)c(CCCN3CCCC3)n2c1` (centres unmarked) [Example 146], the IC50 on melanocortin-4 receptor [1] fell in the range of 0.1 to 1 µM. For the same molecule, at melanocortin-4 receptor [2], the Emax is 0%.
Consider `CCCC1CCCN1C(=O)c1ccc2nc(-c3ccc(C#N)cc3)c(CCCN3CCCC3)n2c1` (centres unmarked) [Example 147], for which the IC50 at melanocortin-4 receptor [1] was over 1 µM. For the same molecule, the Emax on melanocortin-4 receptor [2] came out at 0%.
Consider `O=C(c1ccc2nc(-c3ccc(=O)[nH]c3)c(CCCN3CCCC3)n2c1)N(CCC1CC1)CCC1CC1` [Example 148], for which the IC50 on melanocortin-4 receptor [1] was 0.1 to 1 µM. Moreover, the Emax at melanocortin-4 receptor [2] is -12%.
In the case of `CC(C)CCN(CCC(C)CO)C(=O)c1ccc2nc(-c3ccc(=O)[nH]c3)c(CCCN3CCCC3)n2c1` (centres unmarked) [Example 149], at melanocortin-4 receptor [1], the IC50 lay in the range of 0.1 to 1 µM. In addition, the Emax at melanocortin-4 receptor [2] was 0%.
Taken in the same sequence, the figures for `CC(C)CCN(CC(C)C)C(=O)c1ccc2nc(-c3ccc(C#N)cc3)c(CN3CCC(N)CC3)n2c1` [Example 150] were 0.1 to 1 µM and 0%.
